The values that follow are results of earlier work, collected in PMC8391575, “Identification of Novel Cathepsin B Inhibitors with Implications in Alzheimer’s Disease: Computational Refining and Biochemical Evaluation” (Cells, 2021).

Like-named read-outs stand apart in the source and are kept apart here. Where a SMILES comes first, the peptide text is derived from it.

The subject of one data set is AD animal models. The conditions noted are these: cited from earlier work.
The subject of another data set is cathepsin B. The conditions noted are these: cited from earlier work; for pIC50 Experimental: Table 4.
Setting [1] is: Figure 1, previously reported inhibitors of cathepsin B, read-out: IC50.
The mark [2] stands for this setting: class of the experimental IC50, read-out: Activity Scale Experimental.
Setting [3] is: Table S1, read-out: IC50: half maximal inhibitory concentration.

Regarding `CCOC(=O)[C@H]1O[C@@H]1C(=O)N[C@@H](CC(C)C)C(=O)NCCC(C)C` [Compound N20, ethyl (2S,3S)-3-[[(2S)-4-methyl-1-(3-methylbutylamino)-1-oxopentan-2-yl]carbamoyl]oxirane-2-carboxylate], in the data set on AD animal models, the “Aβ in the brain” value was “reduces Aβ in the brain” and the memory deficits entry was “improves memory deficits”. For the same compound, the IC50 with cathepsin B (setting [1]) was 14 nM. Further, in the data set with cathepsin B, the “pIC50 Experimental” value is 8.47. For the same compound, in the data set on cathepsin B (setting [2]), the IC50 is below 300 nM.

`COc1nc(N(C#N)CC(N)=O)nc(N2CCCC2)n1` [Compound S24, 2-[cyano-(4-methoxy-6-pyrrolidin-1-yl-1,3,5-triazin-2-yl)amino]acetamide]: in the data set with cathepsin B, the “pIC50 Experimental” value is given as 4.85. In the data set on cathepsin B (setting [2]), the IC50 was above 2500 nM.

For `CCC(C)[C@@H](NC(=O)OC(C)(C)C)c1nnc(S(=O)(=O)Cc2cccc(C)c2)o1` (stereo partly drawn) [Compound S23, tert-butyl N-[(1R)-2-methyl-1-[5-[(3-methylphenyl)methylsulfonyl]-1,3,4-oxadiazol-2-yl]butyl]carbamate], in the data set with cathepsin B, the “pIC50 Experimental” value is on record as 5.68. Moreover, in the data set with cathepsin B (setting [2]), the IC50 was 300 to 2500 nM.

As to `CC1=C(C)C[S+]([O-])N(S(=O)(=O)c2ccc(Cl)cc2)C1` (stereo not shown) [Compound S25, 2-(4-chlorophenyl)sulfonyl-4,5-dimethyl-3,6-dihydrothiazine 1-oxide], the “pIC50 Experimental” value in the data set with cathepsin B is given as 5.38. The IC50 in the data set on cathepsin B (setting [2]) was above 2500 nM.

In the case of `CCCNC(=O)C1OC1C(=O)NC(C(=O)N1CCCC1C(=O)OC)C(C)CC` (stereo not shown) [Compound S38, methyl1-[3-methyl-2-[[3-(propylcarbamoyl)oxirane-2-carbonyl]amino]pentanoyl]pyrrolidine-2-carboxylate], the results for the IC50 in the data set on cathepsin B (setting [1]), in the data set on cathepsin B (setting [3]) and with cathepsin B (setting [2]) were […], […] and […], respectively. Besides, the “pIC50 Experimental” value with cathepsin B is on record as […].

Turning to `CCOC(=O)C(C(=O)OCC)N(C#N)c1nc(SC)nc(N(C)C)n1` [Compound S19, diethyl 2-[cyano-[4-(dimethylamino)-6-methylsulfanyl-1,3,5-triazin-2-yl]amino]propanedioate], the “pIC50 Experimental” value with cathepsin B was 4.71. The IC50 in the data set on cathepsin B (setting [2]) is above 2500 nM.

As to `COc1ccc(S(=O)(=O)n2nc(OC(=O)c3cccs3)cc2N)cc1` [Compound S31, [5-amino-1-(4-methoxyphenyl)sulfonylpyrazol-3-yl] thiophene-2-carboxylate], in the data set with cathepsin B, the “pIC50 Experimental” value was 6.16. Besides, the IC50 in the data set with cathepsin B (setting [2]) was 300 to 2500 nM.

Consider `Cn1ncnc2c(=O)n(C)c(=O)nc1-2` [Compound N22, 1,6-dimethylpyrimido[5,4-e][1,2,4]triazine-5,7-dione], for which, in the data set with cathepsin B, the “pIC50 Experimental” value is 7.34. Also, the IC50 with cathepsin B (setting [2]) was below 300 nM.

As to `CCOC(=O)[C@@H]1O[C@H]1C(=O)N[C@@H](CC(C)C)C(=O)N1CCN(Cc2ccc(OC)c(OC)c2OC)CC1` [Compound S39, ethyl(2R,3R)-3-[[(2S)-4-methyl-1-oxo-1-[4-[(2,3,4-trimethoxyphenyl)methyl]piperazin-1-yl]pentan-2-yl]carbamoyl]oxirane-2-carboxylate; sulfuric acid], the “pIC50 Experimental” value with cathepsin B is recorded as 6.09. The IC50 with cathepsin B (setting [3]) was 800 nM; in the data set with cathepsin B (setting [2]) it was 300 to 2500 nM.

Take `COc1ccccc1/N=C/c1nc(-c2ccccc2)oc1OC(C)=O` [Compound S20, [4-[(2-methoxyphenyl)iminomethyl]-2-phenyl-1,3-oxazol-5-yl] acetate]: in the data set with cathepsin B, the “pIC50 Experimental” value is recorded as 5.05. Besides, in the data set with cathepsin B (setting [2]), the IC50 was above 2500 nM.

For the compound `COc1ccc(S(=O)(=O)n2nc(OC(=O)c3ccc(C)cc3)cc2N)cc1` [Compound S8], the “pIC50 Experimental” value with cathepsin B is on record as 4.91. Moreover, the IC50 with cathepsin B (setting [2]) is above 2500 nM.

Consider `CCn1nc(-c2cccs2)nc2c(=O)n(C)c(=O)nc1-2` [Compound S13, 1-Ethyl-6-methyl-3-thiophen-2-yl-1H-pyrimido[5,4-e][1,2,4]triazine-5,7-dione], for which, in the data set with cathepsin B, the “pIC50 Experimental” value is on record as 7.14. Moreover, the IC50 in the data set on cathepsin B (setting [2]) is below 300 nM.

Take `CC(C)C[C@H](NC(=O)[C@@H](NC(=O)N[C@@H](Cc1ccccc1)C(=O)O)C1CCN=C(N)N1)C(=O)N[C@H](C=O)Cc1ccccc1` (stereo partly drawn) [Compound N9, (2S)-2-[[(1S)-1-(2-amino-1,4,5,6-tetrahydropyrimidin-6-yl)-2-[[(2S)-4-methyl-1-oxo-1-[[(2S)-1-oxo-3-phenylpropan-2-yl]amino]pentan-2-yl]amino]-2-oxoethyl]carbamoylamino]-3-phenylpropanoic acid]: the “pIC50 Experimental” value in the data set on cathepsin B is recorded as 5.59. Further, the IC50 in the data set on cathepsin B (setting [3]) is 2600 nM; with cathepsin B (setting [2]) it was above 2500 nM.

`CC(=O)NC(CC(C)C)C(=O)NC(C(=O)NC(C=O)CCCCN)C(C)C` (stereo not drawn) [Compound S3, 2-acetamido-N-[1-[(6-amino-1-oxohexan-2-yl)amino]-3-methyl-1-oxobutan-2-yl]-4-methylpentanamide] (Ac-Leu-Val-Lys-aldehyde; configuration not given here): the “pIC50 Experimental” value with cathepsin B was 8.4. For the same compound, the IC50 in the data set on cathepsin B (setting [2]) is below 300 nM.

With `COc1ccc(-c2cc(=O)c3c(O)cc(O)c(-c4cc(-c5cc(=O)c6c(O)cc(O)cc6o5)ccc4O)c3o2)cc1` [AMF2, 4’’’-methylamentoflavone], in the data set on cathepsin B (setting [1]), the IC50 was 1030 nM.

`Cc1c2ccncc2c(C)c2c1[nH]c1ccccc12` [Compound N12, 5,11-dimethyl-6H-pyrido[4,3-b]carbazole]: the “pIC50 Experimental” value in the data set with cathepsin B is given as 7.99. The IC50 with cathepsin B (setting [2]) was below 300 nM.

As to `COc1ccc(-c2cc(=O)c3c(O)cc(O)c(-c4cc(-c5cc(=O)c6c(O)cc(OC)cc6o5)ccc4OC)c3o2)cc1` [Compound N4, 5,7-dihydroxy-8-[5-(5-hydroxy-7-methoxy-4-oxochromen-2-yl)-2-methoxyphenyl]-2-(4-methoxyphenyl)chromen-4-one], in the data set on cathepsin B, the “pIC50 Experimental” value is recorded as 6.21. Further, the IC50 was 620 nM in the data set with cathepsin B (setting [3]) and 300 to 2500 nM in the data set with cathepsin B (setting [2]).

With `O=C1C[C@@H](c2ccc(O)c(-c3c(O)cc(O)c4c(=O)cc(-c5ccc(O)cc5)oc34)c2)Oc2cc(O)cc(O)c21` [AMF4, 2,3-dihydroamentoflavone], the IC50 in the data set with cathepsin B (setting [1]) was 620 nM.

Regarding `CC(NC(=O)C(Cc1ccccc1)NC(=O)OCc1ccccc1)C([O-])=C[N+]#N` (stereo not shown) [Compound S4, 1-diazonio-3-[[3-phenyl-2-(phenylmethoxycarbonylamino)propanoyl]amino]but-1-en-2-olate], in the data set on cathepsin B, the “pIC50 Experimental” value is listed as 8.03. The IC50 in the data set on cathepsin B (setting [2]) is below 300 nM.

As for `CC(=O)OC1(C(F)(F)F)Oc2ccccc2NC1=O` (stereo not shown) [Compound S33, [3-oxo-2-(trifluoromethyl)-4H-1,4-benzoxazin-2-yl] acetate], the “pIC50 Experimental” value with cathepsin B was 6.07. In addition, in the data set with cathepsin B (setting [2]), the IC50 is 300 to 2500 nM.

As for `O=C(CNC(=O)c1ccco1)OCN1C(=O)c2ccccc2C1=O` [Compound S35, (1,3-dioxoisoindol-2-yl)methyl 2-(furan-2-carbonylamino)acetate], the “pIC50 Experimental” value in the data set on cathepsin B was 5.07. For the same compound, in the data set on cathepsin B (setting [2]), the IC50 is above 2500 nM.

For the compound `Nc1cc(OC(=O)c2ccco2)nn1S(=O)(=O)c1ccc(F)cc1` [Compound S10, [5-amino-1-(4-fluorophenyl)sulfonylpyrazol-3-yl] furan-2-carboxylate], the “pIC50 Experimental” value with cathepsin B is recorded as 5.9. The IC50 with cathepsin B (setting [2]) is 300 to 2500 nM.

`CC(C)C[C@H](NC(=O)C1OC1C(=O)O)C(=O)NCCCC[C@H](N)C(=O)O` (stereo partly drawn) [Compound N2, 3-[[(2S)-1-[[(5S)-5-amino-5-carboxypentyl]amino]-4-methyl-1-oxopentan-2-yl]carbamoyl]oxirane-2-carboxylic acid]: in the data set with cathepsin B, the “pIC50 Experimental” value is 6.89. The results for the IC50 with cathepsin B (setting [3]) and in the data set with cathepsin B (setting [2]) were 130 nM and below 300 nM, respectively.

As to `Nc1cc(OC(=O)c2cccs2)nn1S(=O)(=O)c1ccccc1` [Compound S34, [5-amino-1-(benzenesulfonyl)pyrazol-3-yl] thiophene-2-carboxylate], the “pIC50 Experimental” value in the data set with cathepsin B is 6.61. Further, the IC50 in the data set on cathepsin B (setting [2]) was below 300 nM.

For the compound `O=C(OC(C(=O)NCc1cccs1)c1ccccn1)c1cccs1` (stereo not shown) [Compound S11, [2-oxo-1-pyridin-2-yl-2-(thiophen-2-ylmethylamino)ethyl]thiophene-2-carboxylate], the “pIC50 Experimental” value with cathepsin B is 5.2. The IC50 with cathepsin B (setting [2]) is above 2500 nM.

Consider `CC(=O)N[C@@H](CC(C)C)C(=O)N[C@@H](CC(C)C)C(=O)N[C@H](C=O)CCCN=C(N)N` [Compound N19, 2-acetamido-N-[1-[[5-(diaminomethylideneamino)-1-oxopentan-2-yl]amino]-4-methyl-1-oxopentan-2-yl]-4-methylpentanamide; 2,2,2-trifluoroacetic acid], for which the “pIC50 Experimental” value in the data set with cathepsin B is on record as 6.36. In addition, the IC50 is 440 nM in the data set on cathepsin B (setting [3]) and 300 to 2500 nM in the data set with cathepsin B (setting [2]).

On to `Cn1c(=O)c2c(-c3ccccc3)n(-n3cnnc3)cc2n(C)c1=O` [Compound S30, 1,3-dimethyl-5-phenyl-6-(1,2,4-triazol-4-yl)pyrrolo[3,4-d]pyrimidine-2,4-dione], for which the “pIC50 Experimental” value in the data set with cathepsin B is recorded as 5.93. For the same compound, in the data set with cathepsin B (setting [2]), the IC50 was 300 to 2500 nM.

Turning to `COc1ccc(S(=O)(=O)n2nc(OC(=O)c3ccccc3)cc2N)cc1` [Compound S17, [5-amino-1-(4-methoxyphenyl)sulfonylpyrazol-3-yl] benzoate], the “pIC50 Experimental” value in the data set with cathepsin B was 5.02. In addition, the IC50 with cathepsin B (setting [2]) is above 2500 nM.
